The values that follow come from ChEMBL document CHEMBL1201862, “PubChem BioAssay data set” (2004).

SMILES strings stand for the structures. Calls of active or inactive are those of the source.

Assay [1] is described as follows: luciferase reporter signal suppression in cells – H4 neuroglioma cells, luminescence, dose response (AID 1990). It is filed as functional, cell-based. (In a reporter assay the amount or activity of a reporter protein is the signal.)
Assay [2] in a line: Luminescence Cell-Based Dose Response HTS to Identify Inhibitors of 5'UTR Stem-Loop Driven Prion Protein mRNA Translation in H4 Neuroglioblastoma Cells. [Related pubchem assays: 1827 (Project Summary), 1813 (Primary HTS)]. It is filed as functional.
The target in assay [3] is T1, Heat shock factor protein 1 (Mus musculus, UniProt P38532).
T1 sequence (P38532 whole entry): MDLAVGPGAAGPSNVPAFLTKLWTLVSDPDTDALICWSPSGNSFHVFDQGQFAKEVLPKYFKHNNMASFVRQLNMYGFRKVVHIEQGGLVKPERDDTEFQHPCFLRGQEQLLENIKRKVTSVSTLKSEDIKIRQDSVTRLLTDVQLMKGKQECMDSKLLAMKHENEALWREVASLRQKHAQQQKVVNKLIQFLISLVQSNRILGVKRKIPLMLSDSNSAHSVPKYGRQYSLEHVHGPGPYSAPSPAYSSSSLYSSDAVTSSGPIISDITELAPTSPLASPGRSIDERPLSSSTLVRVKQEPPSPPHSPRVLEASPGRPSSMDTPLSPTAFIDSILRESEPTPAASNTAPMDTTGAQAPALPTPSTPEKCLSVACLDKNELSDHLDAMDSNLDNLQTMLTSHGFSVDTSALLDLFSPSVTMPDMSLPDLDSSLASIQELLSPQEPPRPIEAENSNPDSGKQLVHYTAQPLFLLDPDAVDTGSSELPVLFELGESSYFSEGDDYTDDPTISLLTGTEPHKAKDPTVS
Put plainly: decrease of HSF1-responsive luciferase luminescence – cell-based, NIH3T3, dose retest, confirmation (AID 2382).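 Also: NIH3T3 fibroblasts with HSF1-driven luciferase reporter stressed by proteasome inhibitor MG132; luminescence from HSF1-driven luciferase expression after 8 hours of MG132 stress.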 It is filed as functional.

The nature of assay [4]: alpha-synuclein stem-loop luciferase translation blockers – H4 neuroglioma cells, luminescence, confirmation (AID 1988). It is filed as functional, cell-based.
The test system of assay [5] is Jurkat. In words: blockers of NF-kB activation in T cells – Jurkat, luciferase reporter, luminescence, B- and T-cell, dose response (AID 489004).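 Also: NF-kB luciferase reporter Jurkat cells stimulated with PMA plus ionomycin.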 It is filed as functional, cell-based. To be noted: Homo sapiens.
The nature of assay [6]: HEK-293T viability loss, compound-treated – cell-based, uHTS hits, cytotoxicity control for B/T-cell NF-kB inhibitor project, dose response (AID 489019).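 Also: IC50 reflects cytotoxicity as loss of cell viability.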 It is filed as functional.
A further assay has as its system P388/ADR. Put plainly: cells. It is filed as functional. The following applies: Mus musculus.
The next assay relates to SN12K1. Put plainly: cells. It is filed as functional. The following applies: Homo sapiens.
The next assay relates to P388. In words: cells. It is filed as functional. To be noted: Mus musculus.
Another assay deals with Protein Rev (Human immunodeficiency virus type 1 group M subtype B (isolate HXB2)(HIV-1), UniProt P04618). Put plainly: blockers of HIV Rev/RRE RNA complex – biochemical, fluorescence polarization, HIV-1, dose response (AID 434976). Also noted: species or system Human immunodeficiency virus 1.
Chain of Protein Rev (P04618 whole entry): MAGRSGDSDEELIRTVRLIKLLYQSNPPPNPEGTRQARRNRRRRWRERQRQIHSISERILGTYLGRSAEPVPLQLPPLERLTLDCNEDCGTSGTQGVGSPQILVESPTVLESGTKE
Assay [7] addresses Female germline-specific tumor suppressor gld-1 (Caenorhabditis elegans, UniProt Q17339). Put plainly: blockers of GLD-1/TGE RNA complex formation – biochemical, fluorescence polarization, C. elegans, dose response (AID 2802).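 Also: fluorescence polarization of labeled TGE RNA bound by purified gld-1 protein.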
In the next assay the target is T2, Caspase-3 (Homo sapiens, UniProt P42574).
T2 sequence (P42574 whole entry): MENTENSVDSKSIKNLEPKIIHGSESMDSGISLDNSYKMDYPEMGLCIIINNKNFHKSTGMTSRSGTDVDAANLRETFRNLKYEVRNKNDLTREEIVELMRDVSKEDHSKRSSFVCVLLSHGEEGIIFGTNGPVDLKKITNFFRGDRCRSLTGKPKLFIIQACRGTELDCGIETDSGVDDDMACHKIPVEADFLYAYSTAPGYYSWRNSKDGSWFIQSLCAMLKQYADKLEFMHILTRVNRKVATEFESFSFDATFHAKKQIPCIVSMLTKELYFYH
Put plainly: activation of caspase-3 zymogen – biochemical, absorbance, dose response (AID 489014).

The target of a further assay is Caspase-7 (Homo sapiens, UniProt P55210). In words: activation of caspase-7 zymogen – biochemical, absorbance, counter-screen for procaspase-3 activator project, dose response (AID 489013).
Chain of Caspase-7 (P55210 24-198 limits assumed): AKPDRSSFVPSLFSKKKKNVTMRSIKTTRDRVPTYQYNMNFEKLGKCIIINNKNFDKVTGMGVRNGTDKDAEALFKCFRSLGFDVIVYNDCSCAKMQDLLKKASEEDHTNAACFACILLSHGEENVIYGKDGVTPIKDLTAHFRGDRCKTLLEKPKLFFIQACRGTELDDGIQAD
Chain of Caspase-7 (P55210 207-303 limits assumed): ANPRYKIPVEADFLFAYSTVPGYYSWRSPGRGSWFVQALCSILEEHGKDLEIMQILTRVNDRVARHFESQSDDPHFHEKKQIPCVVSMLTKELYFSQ
Assay [8] has as its target T3, Endoribonuclease toxin MazF (Escherichia coli K-12, UniProt P0AE70). Put plainly: activation of MazEF endoribonuclease cleavage – biochemical, fluorescence, single-stranded RNA substrate, uHTS hits, dose response (AID 588481). It is filed as functional.
In assay [9] the target is T3, Endoribonuclease toxin MazF. In words: substrate-only fluorescence increase artefacts – biochemical, single-stranded RNase substrate, counter-screen for MazEF activator project, dose response (AID 588502). It is filed as functional.
The target in assay [10] is T4, Zinc finger protein mex-5 (Caenorhabditis elegans, UniProt Q9XUB2).
T4 sequence (Q9XUB2 whole entry): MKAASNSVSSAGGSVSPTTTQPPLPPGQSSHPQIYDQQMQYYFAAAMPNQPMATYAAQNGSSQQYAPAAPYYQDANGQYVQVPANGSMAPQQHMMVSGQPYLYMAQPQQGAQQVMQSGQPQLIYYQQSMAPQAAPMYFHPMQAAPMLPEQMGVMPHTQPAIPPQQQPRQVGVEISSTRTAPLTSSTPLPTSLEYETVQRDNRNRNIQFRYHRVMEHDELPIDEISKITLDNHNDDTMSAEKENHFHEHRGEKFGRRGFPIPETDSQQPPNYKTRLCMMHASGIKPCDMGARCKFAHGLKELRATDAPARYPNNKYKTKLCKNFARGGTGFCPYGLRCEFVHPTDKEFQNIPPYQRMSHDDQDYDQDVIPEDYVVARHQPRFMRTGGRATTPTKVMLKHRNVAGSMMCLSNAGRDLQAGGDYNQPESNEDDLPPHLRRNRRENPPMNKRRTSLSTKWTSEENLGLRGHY
In words: potency of MEX-5 RNA-binding blockers – biochemical, C. elegans, fluorescence polarization, dose response (AID 1960). On the technique in general: Polarisation of emitted light reports the rotation of a fluorescent probe.

The target of a further assay is T5, Cysteine protease ATG4B (Homo sapiens, UniProt Q9Y4P1).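 Also: Fluorescence-based dose-response confirmation assay measuring inhibition of ATG4B activity.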
T5 sequence (Q9Y4P1 whole entry): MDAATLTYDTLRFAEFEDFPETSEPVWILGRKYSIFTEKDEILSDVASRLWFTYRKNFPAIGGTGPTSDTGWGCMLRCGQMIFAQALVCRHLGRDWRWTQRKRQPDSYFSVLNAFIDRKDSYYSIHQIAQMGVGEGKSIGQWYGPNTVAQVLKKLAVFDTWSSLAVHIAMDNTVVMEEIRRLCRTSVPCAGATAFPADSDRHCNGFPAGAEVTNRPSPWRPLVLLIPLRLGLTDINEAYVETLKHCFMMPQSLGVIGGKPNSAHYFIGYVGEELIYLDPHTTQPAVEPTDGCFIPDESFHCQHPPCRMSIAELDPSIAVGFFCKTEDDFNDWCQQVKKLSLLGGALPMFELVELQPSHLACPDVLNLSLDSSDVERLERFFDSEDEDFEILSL
It is filed as functional.

The target in another assay is Phospholipase A2 (Homo sapiens, UniProt P04054). It is filed as functional.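 Also: confirmatory dose-response counterscreen on phospholipase A2, testing hits that came from an ultra-high-throughput screen for ATG4B inhibitors.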
Chain of Phospholipase A2 (P04054 whole entry): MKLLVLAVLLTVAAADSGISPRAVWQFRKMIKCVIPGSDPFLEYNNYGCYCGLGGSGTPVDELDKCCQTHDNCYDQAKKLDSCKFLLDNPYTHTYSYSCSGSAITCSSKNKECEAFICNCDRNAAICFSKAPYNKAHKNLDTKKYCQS
Another assay has as its target T6, Protein Tat (Human immunodeficiency virus type 1 group M subtype B (isolate HXB2)(HIV-1), UniProt P04608).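 Also: tat binding to TAR RNA read out by fluorescence polarization.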
T6 sequence (P04608 whole entry): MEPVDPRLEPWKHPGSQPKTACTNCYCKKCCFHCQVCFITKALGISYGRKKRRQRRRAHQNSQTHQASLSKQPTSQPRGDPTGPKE
It is filed as functional.

Assay [11] is described as follows: viability loss in THP-1 monocytes – THP-1 cells, cytotoxicity control for Vif-APOBEC3G degradation inhibitor project, dose response (AID 1117359). It is filed as functional. The following applies: THP-1.
The subject of assay [12] is Escherichia coli. Put plainly: microbe, parasite or virus in culture.
Assay [13] has as its system Escherichia coli. Put plainly: microbe, parasite or virus in culture. The source holds these as a separate data set.
The target in assay [14] is Dual specificity tyrosine-phosphorylation-regulated kinase 1A (Rattus norvegicus, UniProt Q63470). It is filed as biochemical, Homo sapiens.
Another assay relates to HeLa. In words: ATP-based viability loss in HeLa cells – cell-based, CellTiter-Glo luminescence, cherry-pick samples, cytotoxicity control for MITF activator project, dose response (AID 540259). It is filed as functional. The following applies: Homo sapiens. A general note: Cellular ATP, detected with luciferase, serves as a proxy for viable cell number.
In assay [15] the target is Dual specificity protein kinase CLK1 (Homo sapiens, UniProt P49759). In words: inhibition of human CLK1 activity – biochemical, cherry-picked samples, selectivity assay for Dyrk1A inhibitor project, dose response (AID 588811).
Chain of Dual specificity protein kinase CLK1 (P49759 whole entry): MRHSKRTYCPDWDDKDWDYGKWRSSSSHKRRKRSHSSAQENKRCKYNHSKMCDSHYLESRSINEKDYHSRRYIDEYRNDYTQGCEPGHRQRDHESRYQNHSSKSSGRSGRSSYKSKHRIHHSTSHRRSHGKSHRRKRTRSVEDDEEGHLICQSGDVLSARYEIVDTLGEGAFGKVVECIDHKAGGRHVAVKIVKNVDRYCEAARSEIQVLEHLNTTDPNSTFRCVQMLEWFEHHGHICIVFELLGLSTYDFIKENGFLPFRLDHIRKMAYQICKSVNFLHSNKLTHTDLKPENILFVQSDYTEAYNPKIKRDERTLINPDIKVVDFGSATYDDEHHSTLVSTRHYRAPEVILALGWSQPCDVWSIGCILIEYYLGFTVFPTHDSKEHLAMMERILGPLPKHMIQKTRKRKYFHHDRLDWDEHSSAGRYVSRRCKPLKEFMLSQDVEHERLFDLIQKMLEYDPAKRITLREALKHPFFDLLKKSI
Assay [16] deals with HEK293. In words: HEK293T cell viability loss, resazurin readout – resazurin fluorescence, cytotoxicity control for NF-kB activator project, SAR follow-up (AID 493251). It is filed as functional, cell-based. To be noted: Homo sapiens.
Assay [17] deals with Jurkat. In words: SAR Analysis of small molecule inhibitors of T-cell specific antigen receptor-induced NF-kB activation in a Jurkat cell line using a luminescence assay - Set 2. [Related pubchem assays (depositor defined):AID435003, AID435012, AID465]. It is filed as functional, cell-based. The following applies: Homo sapiens.
Assay [18] relates to HEK293. In words: SAR Analysis of small molecule inhibitors of T-cell specific antigen receptor-induced NF-kB activation in a HEK-293T cell line using a luminescence assay - Set 2. [Related pubchem assays (depositor defined):AID435003, AID435012, AID489026]. It is filed as functional, cell-based. To be noted: Homo sapiens.
The next assay concerns the target Phospholipase D1 (Homo sapiens, UniProt Q13393). In words: PLD1 purified enzyme concentration response. [Related pubchem assays (depositor defined):AID588854]. It is filed as functional.
The target in the next assay is Phospholipase D2 (Homo sapiens, UniProt O14939). Put plainly: PLD2 purified enzyme concentration response. [Related pubchem assays (depositor defined):AID588854]. It is filed as functional.
Chain of Phospholipase D2 (O14939 whole entry): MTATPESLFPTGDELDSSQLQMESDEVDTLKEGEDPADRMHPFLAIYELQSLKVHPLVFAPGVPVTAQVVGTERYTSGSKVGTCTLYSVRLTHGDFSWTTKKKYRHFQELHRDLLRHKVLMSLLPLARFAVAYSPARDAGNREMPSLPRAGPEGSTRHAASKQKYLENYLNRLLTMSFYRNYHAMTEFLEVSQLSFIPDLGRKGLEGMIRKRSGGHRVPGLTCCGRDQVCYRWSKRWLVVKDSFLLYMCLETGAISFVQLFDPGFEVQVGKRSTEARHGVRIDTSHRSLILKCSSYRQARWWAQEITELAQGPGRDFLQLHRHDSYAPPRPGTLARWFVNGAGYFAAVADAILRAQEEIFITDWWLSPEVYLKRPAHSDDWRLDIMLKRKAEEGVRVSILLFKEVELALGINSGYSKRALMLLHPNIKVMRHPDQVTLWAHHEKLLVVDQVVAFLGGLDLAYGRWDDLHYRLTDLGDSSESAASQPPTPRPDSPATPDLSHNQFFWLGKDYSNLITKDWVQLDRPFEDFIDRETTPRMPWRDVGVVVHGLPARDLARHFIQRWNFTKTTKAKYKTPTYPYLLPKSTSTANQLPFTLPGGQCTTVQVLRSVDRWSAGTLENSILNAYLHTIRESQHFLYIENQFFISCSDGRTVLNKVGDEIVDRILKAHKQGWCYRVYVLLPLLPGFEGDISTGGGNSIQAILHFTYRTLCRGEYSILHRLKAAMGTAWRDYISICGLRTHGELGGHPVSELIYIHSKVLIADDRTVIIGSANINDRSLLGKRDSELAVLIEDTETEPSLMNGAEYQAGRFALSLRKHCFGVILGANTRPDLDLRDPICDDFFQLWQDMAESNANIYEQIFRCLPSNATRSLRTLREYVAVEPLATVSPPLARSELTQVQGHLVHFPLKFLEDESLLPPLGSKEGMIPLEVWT

T3 sequence (P0AE70 whole entry): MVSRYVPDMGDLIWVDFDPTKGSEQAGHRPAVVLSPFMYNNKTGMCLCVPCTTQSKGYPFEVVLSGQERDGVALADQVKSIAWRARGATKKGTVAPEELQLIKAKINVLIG
Chain of Female germline-specific tumor suppressor gld-1 (Q17339 whole entry): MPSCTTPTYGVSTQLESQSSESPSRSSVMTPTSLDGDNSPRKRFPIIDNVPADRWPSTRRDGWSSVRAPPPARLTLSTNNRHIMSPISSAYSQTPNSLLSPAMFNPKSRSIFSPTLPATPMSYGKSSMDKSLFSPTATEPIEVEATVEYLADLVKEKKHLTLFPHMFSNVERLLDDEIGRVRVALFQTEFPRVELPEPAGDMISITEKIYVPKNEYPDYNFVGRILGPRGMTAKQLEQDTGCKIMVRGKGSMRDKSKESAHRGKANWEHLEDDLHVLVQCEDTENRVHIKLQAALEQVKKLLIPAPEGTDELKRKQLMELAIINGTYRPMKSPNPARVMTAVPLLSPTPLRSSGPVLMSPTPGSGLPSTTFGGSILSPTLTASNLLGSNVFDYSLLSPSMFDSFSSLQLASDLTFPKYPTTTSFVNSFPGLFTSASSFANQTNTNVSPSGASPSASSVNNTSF
Chain of Phospholipase D1 (Q13393 whole entry): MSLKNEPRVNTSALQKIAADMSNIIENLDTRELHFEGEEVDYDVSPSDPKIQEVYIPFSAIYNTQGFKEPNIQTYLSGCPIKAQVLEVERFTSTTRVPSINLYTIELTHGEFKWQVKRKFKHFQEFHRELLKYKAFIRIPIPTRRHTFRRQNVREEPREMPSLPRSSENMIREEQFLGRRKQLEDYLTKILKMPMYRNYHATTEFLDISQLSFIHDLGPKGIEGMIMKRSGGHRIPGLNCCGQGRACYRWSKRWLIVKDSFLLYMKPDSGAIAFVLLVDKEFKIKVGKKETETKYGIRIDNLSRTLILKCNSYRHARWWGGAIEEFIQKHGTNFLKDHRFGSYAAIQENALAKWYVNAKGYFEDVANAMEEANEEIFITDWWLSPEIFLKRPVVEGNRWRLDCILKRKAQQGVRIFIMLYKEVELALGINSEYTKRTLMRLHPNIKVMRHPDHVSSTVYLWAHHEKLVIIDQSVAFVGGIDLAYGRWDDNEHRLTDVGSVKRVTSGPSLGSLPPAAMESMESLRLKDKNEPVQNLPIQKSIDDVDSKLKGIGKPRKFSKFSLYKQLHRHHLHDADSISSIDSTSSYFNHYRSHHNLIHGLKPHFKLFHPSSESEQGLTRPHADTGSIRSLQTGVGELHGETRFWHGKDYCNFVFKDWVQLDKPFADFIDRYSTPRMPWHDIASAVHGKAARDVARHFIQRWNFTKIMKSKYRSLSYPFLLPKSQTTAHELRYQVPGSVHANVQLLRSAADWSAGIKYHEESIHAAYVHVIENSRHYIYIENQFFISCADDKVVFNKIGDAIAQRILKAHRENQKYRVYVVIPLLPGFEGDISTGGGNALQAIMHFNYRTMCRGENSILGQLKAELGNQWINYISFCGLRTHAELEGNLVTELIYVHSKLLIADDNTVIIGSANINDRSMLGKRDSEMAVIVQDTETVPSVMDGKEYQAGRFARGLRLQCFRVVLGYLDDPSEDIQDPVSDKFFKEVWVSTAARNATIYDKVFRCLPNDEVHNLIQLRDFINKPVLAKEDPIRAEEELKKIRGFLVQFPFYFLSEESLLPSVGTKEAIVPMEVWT

As usually defined, the EC50 is the concentration at which the effect is half-maximal. A word on the IC50: it is the midpoint of a concentration-inhibition curve. As a reminder, the GI50 is the concentration giving 50% growth inhibition. In the case of `Nc1nc(Cl)nc2c1ncn2C1CC(O)C(CO)O1` (stereo not given), the EC50 in assay [1] is 0.544 µM (active); in [2], 3.61 µM (active); in [3], 79.9 µM (active); in [4], 0.567 µM (active). The IC50 in the assay on Jurkat [5] is 2.36 µM (active); in assay [6], > 80 µM (inactive). For the same compound, the GI50 in the assay on P388/ADR was 0.0535 µM (active); in the assay on SN12K1, 0.695 µM (active); in the assay with P388, 0.0428 µM (active).

Take `CC(=O)Oc1cccc2c1C(=O)c1c(OC(C)=O)cc(C(=O)O)cc1C2=O` [DIACEREIN]: the IC50 against Protein Rev is > 75.4 µM (not active); in [7], 7.31 µM (active). Besides, the EC50 at Caspase-3 is 7.89 µM (active); at Caspase-7, 14.8 µM (inactive); in assay [8], > 99 µM (inactive); in assay [9], > 99 µM (inactive).

What is called CC50 is the concentration giving 50% cytotoxicity. As usually defined, the AC50 is the concentration giving half of the maximal activity seen. Regarding `C[C@H]1c2cccc(O)c2C(=O)C2=C(O)[C@]3(O)C(=O)C(C(N)=O)=C(O)[C@@H](N(C)C)[C@@H]3[C@@H](O)[C@@H]21`, the EC50 in [10] was 37.9 µM (active). In addition, the IC50 at Cysteine protease ATG4B was 10.4 µM (active); at Phospholipase A2 it was 42.9 µM (inactive); at Protein Tat, > 100 µM (active). Also, the CC50 in [11] is 36 µM (active). Besides, the AC50 in the assay on Escherichia coli [12] was 20.8 µM (active); in the assay on Escherichia coli [13], 0.783 µM (active).

As to `COc1ccc(C=C2SC(=S)NC2=O)cc1`, in assay [14], the AC50 was 0.104 µM (active).

Turning to `Cc1ccc(NC(=O)C(=O)NCc2ccccn2)cc1`, the AC50 in the assay with HeLa is > 350 µM (inactive).

As to `Clc1cc(Cl)cc(CNc2ncncc2-c2ccc3c(c2)OCO3)c1`, the AC50 in assay [15] was 0.0305 µM (active).

As for `Cc1ccc(C(NC(=O)C(C)C)c2ccc3cccnc3c2O)cc1` (stereo not given), the IC50 with HEK293 [16] is 8.28 µM (active); in the assay on Jurkat [17] it was 3.26 µM (active); in the assay on HEK293 [18], 6.33 µM (active).

Take `O=C(NCCN1CCC2(CC1)C(=O)NCN2c1ccc(Br)cc1)c1cnc2ccccc2c1`: the figures for the IC50 at Phospholipase D1 and on Phospholipase D2 were 3.04 µM (active) and 0.13 µM (active), respectively.
